% of control, dTM and % of inhibition data for six compounds are collected here from ChEMBL document CHEMBL5465560, “Selectivity Literature for EUbOPEN Chemogenomic Library” (2024).

Assay [1] has as its target Vascular endothelial growth factor receptor 3 (Homo sapiens, UniProt P35916). Nature of the assay: Selectivity interaction (Kinase panel (Z-LYTE Assay)) EUB0001632a FLT4. Conditions: at 10 µM.
In assay [2] the target is T1, Interleukin-1 receptor-associated kinase 3 (Homo sapiens) (UniProt Q9Y616).
T1 sequence (whole entry): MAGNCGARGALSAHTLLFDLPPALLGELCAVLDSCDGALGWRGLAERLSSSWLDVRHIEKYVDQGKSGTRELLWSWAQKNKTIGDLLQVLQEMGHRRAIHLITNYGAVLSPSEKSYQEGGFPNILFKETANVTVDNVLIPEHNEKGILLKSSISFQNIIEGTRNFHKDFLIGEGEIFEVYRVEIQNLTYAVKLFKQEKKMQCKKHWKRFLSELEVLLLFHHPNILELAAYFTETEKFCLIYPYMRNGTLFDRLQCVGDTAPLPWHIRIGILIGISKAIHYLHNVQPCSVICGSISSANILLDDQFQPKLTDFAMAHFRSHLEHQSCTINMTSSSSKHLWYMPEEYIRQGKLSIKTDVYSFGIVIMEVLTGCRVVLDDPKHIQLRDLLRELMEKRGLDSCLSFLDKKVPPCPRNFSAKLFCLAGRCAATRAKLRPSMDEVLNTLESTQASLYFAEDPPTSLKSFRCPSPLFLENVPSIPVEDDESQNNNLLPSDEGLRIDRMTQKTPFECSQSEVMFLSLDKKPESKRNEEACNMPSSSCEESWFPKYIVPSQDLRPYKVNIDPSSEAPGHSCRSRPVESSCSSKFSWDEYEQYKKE
Nature of the assay: Selectivity interaction (KinomeScan (DiscoverX)) EUB0001619a IRAK3. The conditions noted are these: at 1 µM.

For assay [3], the target named is Death-associated protein kinase 1 (Homo sapiens, UniProt P53355). In words: Selectivity interaction (Kinase panel (DSF assay)) EUB0001559a DAPK1.
For assay [4], the target named is T2, Dual specificity tyrosine-phosphorylation-regulated kinase 2 (Homo sapiens) (UniProt Q92630).
T2 sequence (whole entry): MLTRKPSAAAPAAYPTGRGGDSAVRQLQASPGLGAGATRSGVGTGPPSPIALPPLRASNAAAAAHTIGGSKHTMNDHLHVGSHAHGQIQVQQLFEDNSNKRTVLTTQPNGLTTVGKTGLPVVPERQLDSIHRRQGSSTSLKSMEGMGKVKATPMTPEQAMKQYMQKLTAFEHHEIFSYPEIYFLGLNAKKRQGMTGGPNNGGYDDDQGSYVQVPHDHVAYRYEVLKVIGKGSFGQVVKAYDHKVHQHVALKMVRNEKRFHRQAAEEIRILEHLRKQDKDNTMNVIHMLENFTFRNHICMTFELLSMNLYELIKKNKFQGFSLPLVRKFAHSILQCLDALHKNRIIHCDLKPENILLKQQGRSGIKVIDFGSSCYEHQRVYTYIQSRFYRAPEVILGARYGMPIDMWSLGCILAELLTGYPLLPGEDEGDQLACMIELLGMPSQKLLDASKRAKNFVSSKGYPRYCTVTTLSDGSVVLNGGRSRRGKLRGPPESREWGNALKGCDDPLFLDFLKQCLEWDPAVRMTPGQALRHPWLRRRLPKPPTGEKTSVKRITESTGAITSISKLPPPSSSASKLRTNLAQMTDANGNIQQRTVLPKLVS
In words: Selectivity interaction (Upstate Kinase Profiler service (Millipore)) EUB0000056c DYRK2. The conditions noted are these: at 1 µM.

Assay [5] deals with Mitogen-activated protein kinase 10 (Homo sapiens, UniProt P53779). Nature of the assay: Selectivity interaction (KinomeScan (DiscoverX)) EUB0000655a MAPK10. Conditions: at 10 µM.
Assay [6] addresses T3, Cyclin-G-associated kinase (Homo sapiens) (UniProt O14976).
T3 sequence (whole entry): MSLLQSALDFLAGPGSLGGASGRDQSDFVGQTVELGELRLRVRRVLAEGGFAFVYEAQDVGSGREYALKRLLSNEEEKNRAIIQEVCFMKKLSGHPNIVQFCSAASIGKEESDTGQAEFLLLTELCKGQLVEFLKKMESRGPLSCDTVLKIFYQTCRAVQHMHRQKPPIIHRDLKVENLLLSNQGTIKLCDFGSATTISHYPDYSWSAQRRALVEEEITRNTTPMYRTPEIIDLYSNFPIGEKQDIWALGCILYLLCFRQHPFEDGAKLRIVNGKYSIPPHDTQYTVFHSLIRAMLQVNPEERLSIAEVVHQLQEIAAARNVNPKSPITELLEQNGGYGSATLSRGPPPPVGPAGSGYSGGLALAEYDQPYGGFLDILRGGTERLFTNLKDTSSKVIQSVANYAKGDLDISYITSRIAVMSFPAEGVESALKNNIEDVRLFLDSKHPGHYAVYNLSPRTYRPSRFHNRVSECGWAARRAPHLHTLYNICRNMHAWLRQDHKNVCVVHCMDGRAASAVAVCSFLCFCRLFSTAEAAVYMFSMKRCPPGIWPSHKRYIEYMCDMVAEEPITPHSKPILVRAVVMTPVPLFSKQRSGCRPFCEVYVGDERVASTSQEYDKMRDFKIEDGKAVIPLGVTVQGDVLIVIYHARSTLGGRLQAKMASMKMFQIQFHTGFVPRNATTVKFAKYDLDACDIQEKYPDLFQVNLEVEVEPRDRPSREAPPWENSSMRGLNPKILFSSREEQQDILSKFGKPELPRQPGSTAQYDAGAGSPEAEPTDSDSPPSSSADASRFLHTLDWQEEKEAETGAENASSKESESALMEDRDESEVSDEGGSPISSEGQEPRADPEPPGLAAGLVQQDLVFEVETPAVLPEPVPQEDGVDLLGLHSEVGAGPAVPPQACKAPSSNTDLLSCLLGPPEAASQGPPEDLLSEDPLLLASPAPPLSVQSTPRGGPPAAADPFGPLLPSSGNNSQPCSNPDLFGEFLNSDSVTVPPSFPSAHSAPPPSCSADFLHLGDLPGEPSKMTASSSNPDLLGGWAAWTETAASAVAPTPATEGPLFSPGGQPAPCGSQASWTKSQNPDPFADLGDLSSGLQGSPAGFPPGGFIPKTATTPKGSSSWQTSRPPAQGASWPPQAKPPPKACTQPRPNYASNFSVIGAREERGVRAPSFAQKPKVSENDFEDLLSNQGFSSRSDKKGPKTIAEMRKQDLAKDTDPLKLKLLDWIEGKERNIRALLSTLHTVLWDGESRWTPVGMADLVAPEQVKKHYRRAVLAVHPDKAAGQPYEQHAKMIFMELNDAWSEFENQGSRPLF
Nature of the assay: Selectivity interaction (KinomeScan (DiscoverX)) EUB0000092b GAK. The conditions noted are these: at 10 µM.

The structures appear in SMILES notation.

Chain of Vascular endothelial growth factor receptor 3 (P35916 whole entry): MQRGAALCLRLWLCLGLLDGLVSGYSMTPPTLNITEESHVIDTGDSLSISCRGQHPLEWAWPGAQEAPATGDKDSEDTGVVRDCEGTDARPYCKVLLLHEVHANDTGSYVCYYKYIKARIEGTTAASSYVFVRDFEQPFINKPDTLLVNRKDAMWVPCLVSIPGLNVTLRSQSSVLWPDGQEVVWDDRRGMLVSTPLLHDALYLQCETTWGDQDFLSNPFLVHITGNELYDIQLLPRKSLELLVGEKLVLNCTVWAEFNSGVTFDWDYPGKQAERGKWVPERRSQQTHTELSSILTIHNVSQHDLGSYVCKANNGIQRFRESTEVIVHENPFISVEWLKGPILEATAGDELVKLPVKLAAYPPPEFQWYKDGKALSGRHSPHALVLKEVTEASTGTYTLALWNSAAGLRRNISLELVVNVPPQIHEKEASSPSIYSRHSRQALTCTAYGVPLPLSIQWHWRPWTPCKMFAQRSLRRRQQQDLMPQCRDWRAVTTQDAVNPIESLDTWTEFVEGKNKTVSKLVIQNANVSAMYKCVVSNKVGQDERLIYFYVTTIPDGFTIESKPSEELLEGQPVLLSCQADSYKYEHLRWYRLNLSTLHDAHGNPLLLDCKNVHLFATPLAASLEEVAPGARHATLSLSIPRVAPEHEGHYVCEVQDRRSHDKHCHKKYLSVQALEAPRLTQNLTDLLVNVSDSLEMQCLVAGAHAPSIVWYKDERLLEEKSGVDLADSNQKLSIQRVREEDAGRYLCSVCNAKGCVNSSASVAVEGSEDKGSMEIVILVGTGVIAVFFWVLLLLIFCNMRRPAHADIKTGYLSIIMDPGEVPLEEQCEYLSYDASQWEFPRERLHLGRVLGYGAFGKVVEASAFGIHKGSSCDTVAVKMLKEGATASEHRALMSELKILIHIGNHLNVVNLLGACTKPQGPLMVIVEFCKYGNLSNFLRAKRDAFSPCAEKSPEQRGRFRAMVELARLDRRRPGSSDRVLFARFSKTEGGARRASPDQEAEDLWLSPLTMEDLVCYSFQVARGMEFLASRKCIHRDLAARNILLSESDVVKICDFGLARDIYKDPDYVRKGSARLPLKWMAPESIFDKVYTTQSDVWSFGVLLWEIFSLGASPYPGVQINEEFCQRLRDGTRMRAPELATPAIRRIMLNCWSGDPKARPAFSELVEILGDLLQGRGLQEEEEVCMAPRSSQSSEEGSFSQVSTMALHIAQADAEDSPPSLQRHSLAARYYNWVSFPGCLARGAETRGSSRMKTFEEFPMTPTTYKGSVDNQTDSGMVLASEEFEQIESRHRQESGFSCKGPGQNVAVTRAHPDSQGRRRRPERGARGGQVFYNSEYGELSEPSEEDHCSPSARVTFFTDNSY
Chain of Mitogen-activated protein kinase 10 (P53779 whole entry): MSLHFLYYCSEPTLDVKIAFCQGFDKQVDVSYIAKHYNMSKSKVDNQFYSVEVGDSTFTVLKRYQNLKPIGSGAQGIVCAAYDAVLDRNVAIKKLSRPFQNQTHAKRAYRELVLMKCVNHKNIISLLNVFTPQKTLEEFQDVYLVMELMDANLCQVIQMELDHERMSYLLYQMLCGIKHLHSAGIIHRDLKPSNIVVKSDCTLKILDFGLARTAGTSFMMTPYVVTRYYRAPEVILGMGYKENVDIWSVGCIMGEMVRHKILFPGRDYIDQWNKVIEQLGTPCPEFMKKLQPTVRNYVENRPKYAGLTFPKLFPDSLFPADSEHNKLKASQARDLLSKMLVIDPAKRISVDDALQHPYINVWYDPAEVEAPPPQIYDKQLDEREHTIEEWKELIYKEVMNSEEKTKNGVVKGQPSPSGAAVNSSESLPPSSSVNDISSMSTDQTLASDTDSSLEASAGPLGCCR
Chain of Death-associated protein kinase 1 (P53355 whole entry, looked up): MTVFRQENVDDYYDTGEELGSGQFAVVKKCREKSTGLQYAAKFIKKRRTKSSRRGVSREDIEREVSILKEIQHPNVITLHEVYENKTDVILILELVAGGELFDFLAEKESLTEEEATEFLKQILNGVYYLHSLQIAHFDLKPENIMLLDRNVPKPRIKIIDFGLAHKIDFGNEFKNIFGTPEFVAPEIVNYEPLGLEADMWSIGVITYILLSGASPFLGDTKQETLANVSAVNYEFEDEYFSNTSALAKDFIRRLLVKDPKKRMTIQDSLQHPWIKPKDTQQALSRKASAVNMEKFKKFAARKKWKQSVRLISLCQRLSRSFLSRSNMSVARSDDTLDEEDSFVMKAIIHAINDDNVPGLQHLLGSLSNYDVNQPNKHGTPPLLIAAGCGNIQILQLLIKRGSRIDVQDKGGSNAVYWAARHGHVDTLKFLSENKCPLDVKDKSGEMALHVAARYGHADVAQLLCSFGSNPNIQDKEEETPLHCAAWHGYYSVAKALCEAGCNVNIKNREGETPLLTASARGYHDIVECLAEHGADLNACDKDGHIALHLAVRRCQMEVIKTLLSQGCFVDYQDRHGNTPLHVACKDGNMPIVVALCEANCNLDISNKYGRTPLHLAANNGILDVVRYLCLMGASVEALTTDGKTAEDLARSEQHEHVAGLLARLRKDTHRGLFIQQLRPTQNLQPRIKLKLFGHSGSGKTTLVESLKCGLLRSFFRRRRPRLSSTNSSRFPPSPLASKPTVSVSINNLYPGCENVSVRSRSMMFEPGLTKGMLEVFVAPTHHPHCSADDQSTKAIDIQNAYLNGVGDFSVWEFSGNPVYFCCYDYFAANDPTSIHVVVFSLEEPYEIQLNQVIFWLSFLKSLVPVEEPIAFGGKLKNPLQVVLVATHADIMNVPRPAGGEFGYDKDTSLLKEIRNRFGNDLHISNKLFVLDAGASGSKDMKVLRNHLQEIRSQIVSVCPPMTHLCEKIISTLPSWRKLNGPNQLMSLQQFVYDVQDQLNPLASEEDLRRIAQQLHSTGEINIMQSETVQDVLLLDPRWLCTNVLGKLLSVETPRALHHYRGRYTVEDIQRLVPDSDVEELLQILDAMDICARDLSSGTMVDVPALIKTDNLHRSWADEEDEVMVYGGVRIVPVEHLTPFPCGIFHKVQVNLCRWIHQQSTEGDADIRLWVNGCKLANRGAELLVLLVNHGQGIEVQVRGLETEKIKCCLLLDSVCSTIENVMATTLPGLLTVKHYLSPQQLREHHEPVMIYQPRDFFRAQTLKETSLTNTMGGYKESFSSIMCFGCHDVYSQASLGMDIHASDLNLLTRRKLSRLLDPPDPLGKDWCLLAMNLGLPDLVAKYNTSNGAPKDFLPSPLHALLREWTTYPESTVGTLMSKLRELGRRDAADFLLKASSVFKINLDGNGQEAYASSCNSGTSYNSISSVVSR

In the case of `Cn1cc(-n2cnc3c(NCc4nc5cc(Cl)c(Cl)cc5[nH]4)nc(N4CCOCC4)nc32)cn1`, in assay [1], the % of control turned out to be 11.7%.

Turning to `N#Cc1cccc(-c2c[nH]c3ncnc(N4CCOCC4)c23)c1`, in assay [2], the % of control amounted to 74%.

With `CN(C(=O)c1cnn2cccnc12)c1cc2c(cc1N1CCOCC1)C(=O)N(C[C@@H](F)C(C)(C)O)C2`, in assay [3], the dTM is -0.3 K.

Turning to `Cc1ccc(-c2ccc3c(ccc4sc5c(c43)NC[C@@H](C)NC5=O)n2)cn1`, the % of inhibition in assay [4] is 27%.

`CN(C)CCOc1ccc(-c2nc(-c3ccncc3)c(-c3ccc4c(c3)CC/C4=N\O)[nH]2)cc1` registered a % of control in assay [5] of 8.6%.

In assay [6], `CCC(=O)N1CCN(c2ccc(-n3c(=O)ccc4cnc5ccc(-c6cnc7ccccc7c6)cc5c43)cc2C(F)(F)F)CC1` yielded a % of control of 57%.
